Measured values from ChEMBL document CHEMBL1201862, “PubChem BioAssay data set” (2004).
The source made the active and inactive calls.

Assays:
HEK293 [1] = test: cells; format: functional, cell-based; settings: Homo sapiens
[2] = molecular target: T1, Nuclear receptor subfamily 0 group B member 1 (Homo sapiens, UniProt P51843); test: Luminescence-based cell-based high throughput dose response assay for inhibitors of the orphan nuclear receptor subfamily 0, group B, member 1 (DAX1; NR0B1). [Related pubchem assays (depositor defined):AID504766, AID504790]; format: functional
T1 sequence (P51843 whole entry): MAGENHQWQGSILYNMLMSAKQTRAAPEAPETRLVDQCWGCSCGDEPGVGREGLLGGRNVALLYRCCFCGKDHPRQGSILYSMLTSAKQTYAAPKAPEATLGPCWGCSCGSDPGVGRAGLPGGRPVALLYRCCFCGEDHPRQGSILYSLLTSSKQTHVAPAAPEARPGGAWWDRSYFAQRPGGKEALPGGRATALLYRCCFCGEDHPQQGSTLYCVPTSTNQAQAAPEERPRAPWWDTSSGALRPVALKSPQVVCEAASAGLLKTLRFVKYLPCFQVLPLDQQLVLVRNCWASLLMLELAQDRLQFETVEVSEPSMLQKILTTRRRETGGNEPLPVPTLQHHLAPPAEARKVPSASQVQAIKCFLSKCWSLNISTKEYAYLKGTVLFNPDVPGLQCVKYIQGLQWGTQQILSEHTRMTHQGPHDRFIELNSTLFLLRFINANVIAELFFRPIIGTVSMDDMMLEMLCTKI

Vero = test: cells; format: functional; settings: Chlorocebus sabaeus
[3] = molecular target: G-protein coupled receptor 55 (Homo sapiens, UniProt Q9Y2T6); test: GPR55 antagonists blocking LPI-driven arrestin recruitment, primary screen, imaging, U2OS, beta-arrestin-GFP, LPI agonist (AID 2013); format: functional;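 note: antagonist potency measured as reduced agonist-driven arrestin aggregation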
[4] = molecular target: Delta-type opioid receptor (Homo sapiens, UniProt P41143); test: Counterscreen for agonists of heterodimerization of the mu 1 (OPRM1) and delta 1 (OPRD1) opioid receptors: Luminescence-based cell-based high throughput dose response assay to identify agonists of OPRD1 homodimerization. [Related pubchem assays (depositor defined):AID504326, AID504355, AID504692, AID504904, AID504905]; format: functional
Mu-type opioid receptor = Mu-type opioid receptor (Homo sapiens, UniProt P35372); test: Counterscreen for agonists of heterodimerization of the mu 1 (OPRM1) and delta 1 (OPRD1) opioid receptors: Luminescence-based cell-based high throughput dose response assay to identify agonists of OPRM1 homodimerization.; format: functional;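 note: U2OS cells expressing OPRM1 and beta-arrestin as split beta-galactosidase partners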
[5] = molecular target: 5-hydroxytryptamine receptor 5A (Homo sapiens, UniProt P47898); test: Counterscreen for agonists of OPRM1-OPRD1 heterodimerization: luminescence-based cell-based high throughput dose response assay to identify agonists of 5-hydroxytryptamine (serotonin) 5A receptor (HTR5A). [Related pubchem assays (depositor defined):AID504326, AID504355, AID504692, AID504904, AID504905]; format: functional
Cytochrome P450 2C19 = Cytochrome P450 2C19 (Homo sapiens, UniProt P33261); test: Cytochrome panel assay with activity outcomes. Panel member name: p450-cyp2c19 Compounds with AC50 equal or less than 10 uM are considered active; format: functional
Cytochrome P450 3A4 [6] = molecular target: T2, Cytochrome P450 3A4 (Homo sapiens, UniProt P08684);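 note: CYP3A4 tested as one member of a cytochrome P450 panel screen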
[7] = molecular target: Intestinal-type alkaline phosphatase (Mus musculus, UniProt P24822); test: PubChem AID 488785; format: functional
[8] = molecular target: T3, Alkaline phosphatase, tissue-nonspecific isozyme (Homo sapiens, UniProt P05186); test: TNAP enzyme inhibition by screening hits, dose response, selectivity assay for mouse IAP inhibitor project, biochemical, human TNAP, uHTS hits (AID 488906); format: functional
T3 sequence (P05186 whole entry): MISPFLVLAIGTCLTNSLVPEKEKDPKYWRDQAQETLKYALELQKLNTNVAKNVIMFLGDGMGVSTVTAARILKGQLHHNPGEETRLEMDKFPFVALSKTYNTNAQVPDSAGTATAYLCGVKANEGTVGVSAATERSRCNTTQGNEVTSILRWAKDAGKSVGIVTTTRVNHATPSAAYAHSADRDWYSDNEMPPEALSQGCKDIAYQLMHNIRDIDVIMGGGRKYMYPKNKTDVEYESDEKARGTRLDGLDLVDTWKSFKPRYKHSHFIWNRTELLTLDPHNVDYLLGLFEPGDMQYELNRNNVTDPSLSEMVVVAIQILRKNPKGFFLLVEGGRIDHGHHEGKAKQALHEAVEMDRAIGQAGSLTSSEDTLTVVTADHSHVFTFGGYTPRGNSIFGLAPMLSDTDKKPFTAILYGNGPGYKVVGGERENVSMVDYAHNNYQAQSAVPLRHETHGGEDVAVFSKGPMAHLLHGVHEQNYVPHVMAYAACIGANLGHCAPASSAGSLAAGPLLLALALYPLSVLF

[9] = molecular target: Intestinal-type alkaline phosphatase (Homo sapiens, UniProt P09923); test: inhibition of human intestinal alkaline phosphatase – biochemical, dose response (AID 488876); format: functional
[10] = molecular target: Dual specificity tyrosine-phosphorylation-regulated kinase 1A (Rattus norvegicus, UniProt Q63470); format: biochemical, Homo sapiens
Genome polyprotein = Genome polyprotein (dengue virus type 2, UniProt P29990); test: Dengue-2 NS5 methyltransferase inhibitors, primary screen, biochemical, confirmation dose response (AID 588689); format: functional
[11] = cytotoxicity toward NIH3T3 fibroblasts, dose response, counter-screen, cell-based, ATP luminescence, mouse fibroblasts (AID 2010); format: functional;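 note: cells exposed to compound for about 90 hours before reading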
[12] = inhibitors of intracellular T. cruzi replication, confirmation, NIH3T3 host cells, beta-gal luminescence (AID 2044); format: functional, cell-based;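 note: intracellular parasites grown in NIH/3T3 mouse fibroblasts as host cells; luminescent beta-galactosidase reporter signal from transgenic T. cruzi replicating inside host cells; inhibitors lower the luminescence signal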
Phospholipase A2 = Phospholipase A2 (Homo sapiens, UniProt P04054); format: functional;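 note: confirmatory dose-response counterscreen on phospholipase A2, testing hits that came from an ultra-high-throughput screen for ATG4B inhibitors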
Cysteine protease ATG4B = Cysteine protease ATG4B (Homo sapiens, UniProt Q9Y4P1); format: functional;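 note: Fluorescence-based dose-response confirmation assay measuring inhibition of ATG4B activity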
HeLa = test: HeLa cell cytotoxicity, dose response, cytotoxicity control for MITF activator project, CellTiter-Glo luminescence, cherry-pick samples (AID 540259); format: functional, cell-based; settings: Homo sapiens
H4 = test: Luminescence Cell-Based Dose Response HTS to Identify Activators of 5'UTR Stem-Loop Driven Prion Protein mRNA Translation in H4 Neuroglioblastoma Cells. [Related pubchem assays: 1829 (Project Summary), 1814 (Primary HTS)]; format: functional; settings: Homo sapiens
Protein skinhead-1 = molecular target: T4, Protein skinhead-1 (Caenorhabditis elegans, UniProt P34707); format: functional
T4 sequence (P34707 whole entry): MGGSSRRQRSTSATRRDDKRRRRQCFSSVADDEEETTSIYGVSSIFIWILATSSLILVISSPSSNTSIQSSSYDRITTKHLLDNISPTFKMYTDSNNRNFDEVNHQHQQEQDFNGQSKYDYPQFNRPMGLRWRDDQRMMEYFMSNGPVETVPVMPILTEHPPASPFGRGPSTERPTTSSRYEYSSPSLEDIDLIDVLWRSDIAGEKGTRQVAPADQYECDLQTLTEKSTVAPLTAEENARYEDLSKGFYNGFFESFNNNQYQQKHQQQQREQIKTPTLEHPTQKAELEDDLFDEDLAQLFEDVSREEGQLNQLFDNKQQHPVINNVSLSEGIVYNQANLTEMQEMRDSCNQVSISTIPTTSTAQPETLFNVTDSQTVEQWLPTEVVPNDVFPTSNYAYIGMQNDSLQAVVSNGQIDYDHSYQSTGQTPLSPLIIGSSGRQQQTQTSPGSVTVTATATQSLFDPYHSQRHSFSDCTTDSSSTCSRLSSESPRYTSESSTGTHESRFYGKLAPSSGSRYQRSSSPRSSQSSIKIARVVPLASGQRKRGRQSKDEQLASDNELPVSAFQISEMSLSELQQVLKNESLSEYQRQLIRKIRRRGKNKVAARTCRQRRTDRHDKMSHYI

[13] = test system: Streptococcus sp. 'group A'; test: growth inhibition of control SK(-) GAS strain, dose response, counter-screen for streptokinase expression inhibitor project, luminescence, kanamycin, BacTiterGlo, confirmation (AID 1900); format: functional, organism-based
Streptococcus = test: Group A Streptococcus viability loss, dose response, counter-screen for streptokinase expression inhibitor project, luminescence, BacTiterGlo (AID 1915); format: functional, organism-based;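 note: potency for reduction of bacterial viability or growth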
Escherichia coli [14] = test: microbe, parasite or virus in culture
CAAX prenyl protease 2 [15] = molecular target: CAAX prenyl protease 2 (Saccharomyces cerevisiae S288c, UniProt Q03530); format: biochemical
CAAX prenyl protease 2 [16] = molecular target: CAAX prenyl protease 2 (Homo sapiens, UniProt Q9Y256); test: human Rce1 protease inhibitors, dose response, biochemical, yeast membranes, quenched-peptide fluorescence, cherry-pick (AID 588849)
[17] = molecular target: Lysine-specific demethylase 4A (Homo sapiens, UniProt O75164); test: JMJD2A histone demethylase inhibitors, dose response, selectivity assay for GASC-1 inhibitor project, biochemical, DELFIA europium, cherry-picked samples (AID 488840)
[18] = molecular target: Sphingosine 1-phosphate receptor 2 (Homo sapiens, UniProt O95136); test: Dose Response Cell Based Assay for Agonists of the S1P2 Receptor. [Related pubchem assays: 729, 736, 843 ]; format: functional
Cytochrome P450 3A4 [19] = molecular target: T2, Cytochrome P450 3A4; remark: listed apart in the source
Escherichia coli [20] = test: microbe, parasite or virus in culture; remark: listed apart in the source
HEK293 [21] = test: cells; settings: Homo sapiens
HEK293 [22] = test: cells; settings: Homo sapiens; remark: listed apart in the source
[23] = molecular target: Induced myeloid leukemia cell differentiation protein Mcl-1 (Homo sapiens, UniProt Q07820); format: functional

T2 sequence (P08684 whole entry): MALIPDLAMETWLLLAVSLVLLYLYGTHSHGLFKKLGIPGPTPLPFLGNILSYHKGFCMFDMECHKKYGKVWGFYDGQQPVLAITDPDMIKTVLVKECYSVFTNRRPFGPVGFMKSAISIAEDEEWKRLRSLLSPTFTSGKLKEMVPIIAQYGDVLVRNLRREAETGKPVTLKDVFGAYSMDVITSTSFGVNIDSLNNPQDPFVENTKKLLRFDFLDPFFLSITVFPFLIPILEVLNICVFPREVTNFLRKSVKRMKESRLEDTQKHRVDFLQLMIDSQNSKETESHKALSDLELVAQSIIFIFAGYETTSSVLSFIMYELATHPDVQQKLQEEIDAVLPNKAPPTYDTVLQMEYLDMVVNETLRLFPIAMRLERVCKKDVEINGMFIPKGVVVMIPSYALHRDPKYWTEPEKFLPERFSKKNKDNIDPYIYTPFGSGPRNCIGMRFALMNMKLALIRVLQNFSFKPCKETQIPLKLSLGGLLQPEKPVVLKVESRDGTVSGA
Cytochrome P450 2C19, sequence (P33261 whole entry): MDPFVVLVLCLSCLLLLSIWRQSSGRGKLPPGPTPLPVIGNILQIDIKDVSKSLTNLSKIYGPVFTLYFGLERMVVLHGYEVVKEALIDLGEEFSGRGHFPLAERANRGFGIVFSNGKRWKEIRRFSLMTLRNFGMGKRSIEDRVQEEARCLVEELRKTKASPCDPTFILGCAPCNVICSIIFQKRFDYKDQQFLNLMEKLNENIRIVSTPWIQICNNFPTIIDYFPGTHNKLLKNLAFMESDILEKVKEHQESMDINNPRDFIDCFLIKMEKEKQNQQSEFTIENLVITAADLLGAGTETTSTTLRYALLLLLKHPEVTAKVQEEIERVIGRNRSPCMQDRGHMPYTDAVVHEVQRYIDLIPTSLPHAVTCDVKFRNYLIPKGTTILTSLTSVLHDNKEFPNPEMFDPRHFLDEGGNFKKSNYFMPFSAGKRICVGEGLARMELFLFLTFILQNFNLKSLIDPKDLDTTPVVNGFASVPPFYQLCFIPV
5-hydroxytryptamine receptor 5A, sequence (P47898 whole entry): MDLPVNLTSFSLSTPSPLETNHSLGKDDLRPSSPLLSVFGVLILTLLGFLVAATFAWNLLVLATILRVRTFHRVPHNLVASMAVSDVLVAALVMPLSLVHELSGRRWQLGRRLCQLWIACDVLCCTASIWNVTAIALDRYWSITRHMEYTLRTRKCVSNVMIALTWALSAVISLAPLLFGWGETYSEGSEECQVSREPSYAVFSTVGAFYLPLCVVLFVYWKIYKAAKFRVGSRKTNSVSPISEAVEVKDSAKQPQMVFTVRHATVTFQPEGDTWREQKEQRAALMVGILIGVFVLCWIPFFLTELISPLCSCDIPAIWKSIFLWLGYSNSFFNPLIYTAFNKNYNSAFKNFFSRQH
Phospholipase A2, sequence (P04054 whole entry): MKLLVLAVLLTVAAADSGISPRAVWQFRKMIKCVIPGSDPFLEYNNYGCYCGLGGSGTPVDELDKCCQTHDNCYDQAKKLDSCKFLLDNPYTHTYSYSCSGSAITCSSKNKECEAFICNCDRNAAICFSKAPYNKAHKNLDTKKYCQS
Intestinal-type alkaline phosphatase (Homo sapiens, UniProt P09923), sequence (P09923 whole entry): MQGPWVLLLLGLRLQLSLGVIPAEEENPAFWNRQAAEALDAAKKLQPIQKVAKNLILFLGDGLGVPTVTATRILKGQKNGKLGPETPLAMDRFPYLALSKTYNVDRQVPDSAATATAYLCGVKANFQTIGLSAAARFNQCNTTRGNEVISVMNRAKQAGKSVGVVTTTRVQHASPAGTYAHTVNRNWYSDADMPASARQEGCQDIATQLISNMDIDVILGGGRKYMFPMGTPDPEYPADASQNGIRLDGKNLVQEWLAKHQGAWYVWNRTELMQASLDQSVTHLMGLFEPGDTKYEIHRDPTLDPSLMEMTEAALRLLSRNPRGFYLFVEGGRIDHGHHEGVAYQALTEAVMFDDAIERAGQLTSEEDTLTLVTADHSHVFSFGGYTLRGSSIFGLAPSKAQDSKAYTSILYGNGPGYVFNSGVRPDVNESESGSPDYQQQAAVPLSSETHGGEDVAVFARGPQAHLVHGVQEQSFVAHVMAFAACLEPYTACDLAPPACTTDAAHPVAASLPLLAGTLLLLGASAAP
Lysine-specific demethylase 4A, sequence (O75164 whole entry): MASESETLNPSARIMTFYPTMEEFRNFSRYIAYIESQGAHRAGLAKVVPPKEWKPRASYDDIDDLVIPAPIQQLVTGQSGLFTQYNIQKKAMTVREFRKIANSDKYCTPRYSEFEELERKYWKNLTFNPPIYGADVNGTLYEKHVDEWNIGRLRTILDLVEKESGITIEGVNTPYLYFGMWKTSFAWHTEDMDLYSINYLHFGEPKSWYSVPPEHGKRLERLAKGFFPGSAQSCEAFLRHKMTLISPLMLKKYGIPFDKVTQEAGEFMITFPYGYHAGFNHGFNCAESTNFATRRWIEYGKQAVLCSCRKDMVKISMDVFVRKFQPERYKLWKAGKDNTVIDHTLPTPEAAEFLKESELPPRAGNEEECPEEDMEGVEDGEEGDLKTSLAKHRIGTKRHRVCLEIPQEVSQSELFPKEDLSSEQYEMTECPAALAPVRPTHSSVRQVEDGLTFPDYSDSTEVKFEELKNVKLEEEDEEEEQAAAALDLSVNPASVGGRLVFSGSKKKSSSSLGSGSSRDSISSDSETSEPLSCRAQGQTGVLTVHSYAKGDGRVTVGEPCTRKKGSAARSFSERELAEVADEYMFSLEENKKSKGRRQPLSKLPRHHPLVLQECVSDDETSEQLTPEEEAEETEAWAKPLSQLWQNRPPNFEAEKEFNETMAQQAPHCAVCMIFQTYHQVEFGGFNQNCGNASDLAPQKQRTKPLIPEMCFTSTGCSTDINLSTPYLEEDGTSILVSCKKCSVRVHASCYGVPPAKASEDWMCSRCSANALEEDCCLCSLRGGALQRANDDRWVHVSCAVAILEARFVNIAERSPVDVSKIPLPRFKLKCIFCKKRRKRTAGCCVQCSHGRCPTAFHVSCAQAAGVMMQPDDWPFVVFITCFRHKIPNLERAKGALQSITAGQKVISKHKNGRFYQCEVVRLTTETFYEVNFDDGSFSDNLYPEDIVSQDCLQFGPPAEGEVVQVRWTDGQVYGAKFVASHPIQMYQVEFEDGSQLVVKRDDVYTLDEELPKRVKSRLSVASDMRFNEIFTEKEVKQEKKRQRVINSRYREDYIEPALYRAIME
Cysteine protease ATG4B, sequence (Q9Y4P1 whole entry): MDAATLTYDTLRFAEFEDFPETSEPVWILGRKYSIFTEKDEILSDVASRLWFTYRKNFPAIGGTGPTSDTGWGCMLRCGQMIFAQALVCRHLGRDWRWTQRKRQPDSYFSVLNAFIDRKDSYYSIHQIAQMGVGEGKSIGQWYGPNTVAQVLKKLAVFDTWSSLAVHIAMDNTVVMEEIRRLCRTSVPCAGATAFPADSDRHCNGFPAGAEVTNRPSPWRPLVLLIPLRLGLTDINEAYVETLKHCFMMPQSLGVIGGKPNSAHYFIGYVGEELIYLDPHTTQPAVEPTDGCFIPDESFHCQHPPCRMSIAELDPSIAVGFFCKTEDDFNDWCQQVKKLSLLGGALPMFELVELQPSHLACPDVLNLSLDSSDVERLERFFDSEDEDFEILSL
Intestinal-type alkaline phosphatase (Mus musculus, UniProt P24822), sequence (P24822 whole entry): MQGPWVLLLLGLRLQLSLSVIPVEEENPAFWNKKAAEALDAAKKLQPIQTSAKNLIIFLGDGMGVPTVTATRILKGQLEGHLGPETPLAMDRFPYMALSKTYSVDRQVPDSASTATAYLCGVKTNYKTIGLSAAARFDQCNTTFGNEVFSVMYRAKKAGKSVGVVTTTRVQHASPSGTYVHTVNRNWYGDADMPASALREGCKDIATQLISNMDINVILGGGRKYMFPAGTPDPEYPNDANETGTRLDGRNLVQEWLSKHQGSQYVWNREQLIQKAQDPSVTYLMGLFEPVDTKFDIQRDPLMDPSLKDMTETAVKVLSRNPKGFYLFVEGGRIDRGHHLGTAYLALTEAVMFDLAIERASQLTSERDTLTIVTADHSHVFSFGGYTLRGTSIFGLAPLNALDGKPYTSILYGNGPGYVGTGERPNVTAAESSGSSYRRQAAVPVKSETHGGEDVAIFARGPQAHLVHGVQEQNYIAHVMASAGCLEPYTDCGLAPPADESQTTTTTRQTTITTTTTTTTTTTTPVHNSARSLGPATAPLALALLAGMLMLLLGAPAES
Delta-type opioid receptor, sequence (P41143 whole entry): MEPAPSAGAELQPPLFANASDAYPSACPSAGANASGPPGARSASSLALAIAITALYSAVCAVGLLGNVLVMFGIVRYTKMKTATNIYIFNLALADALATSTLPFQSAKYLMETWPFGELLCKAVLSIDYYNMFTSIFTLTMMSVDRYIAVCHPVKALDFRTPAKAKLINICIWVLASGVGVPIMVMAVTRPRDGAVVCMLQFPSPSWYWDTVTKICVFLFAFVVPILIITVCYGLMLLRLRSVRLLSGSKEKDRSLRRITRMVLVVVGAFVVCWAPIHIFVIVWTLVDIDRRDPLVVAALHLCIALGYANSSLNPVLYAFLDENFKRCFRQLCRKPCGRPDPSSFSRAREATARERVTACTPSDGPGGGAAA
Mu-type opioid receptor, sequence (P35372 whole entry): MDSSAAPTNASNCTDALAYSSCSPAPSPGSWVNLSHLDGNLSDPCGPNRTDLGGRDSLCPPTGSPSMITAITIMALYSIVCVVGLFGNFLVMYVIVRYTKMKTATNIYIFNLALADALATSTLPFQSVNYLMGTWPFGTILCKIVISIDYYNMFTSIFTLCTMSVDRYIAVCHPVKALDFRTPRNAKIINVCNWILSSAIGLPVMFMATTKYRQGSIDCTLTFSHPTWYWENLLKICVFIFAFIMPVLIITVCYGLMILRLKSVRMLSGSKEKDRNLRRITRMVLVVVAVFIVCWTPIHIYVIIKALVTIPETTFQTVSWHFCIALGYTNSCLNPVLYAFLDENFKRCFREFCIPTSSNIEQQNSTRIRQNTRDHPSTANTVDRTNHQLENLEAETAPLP

In the case of COc1cc(SC)ccc1C(=O)Nc1ccc2c(c1)OCO2, the IC50 (HEK293 [1]) is reported as > 67.6 µM (inactive) and the IC50 [2] is reported as > 67.6 µM (inactive).
With Cc1cc(/C=C2\SC(Nc3ccccc3)=NC2=O)c(C)n1-c1ccc(S(N)(=O)=O)cc1 the CC50 (Vero) was 7.44 µM (active), the IC50 [3] was 1.66 µM (active) and the EC50 [4] was 3.03 µM (active). For the same molecule, the EC50 (Mu-type opioid receptor) was > 92.5 µM (inactive) and the EC50 [5] was > 92.5 µM (inactive).
In the case of Cc1ccc(C(=O)C2CCNCC2)cc1.Cl, the AC50 (Cytochrome P450 2C19) is reported as “inconclusive” and the AC50 (Cytochrome P450 3A4 [6]) is reported as “inconclusive”.
In the case of C[N+](C)(C)C(Cc1ccccc1)C(=O)[O-] (stereo not given), the IC50 [7] is reported as 4.35 µM (active), the IC50 [8] is reported as 60.4 µM (active) and the IC50 [9] is reported as > 100 µM (inactive).
With NS(=O)(=O)c1ccc(N=Nc2c(O)c(C(=O)O)cc3ccccc23)cc1 the AC50 [10] was 3.59 µM (active) and the IC50 (Genome polyprotein) was > 100 µM (active).
For CCCn1ncc(CN2CCC(C(=O)Nc3cccc(-c4cccc(F)c4)c3)CC2)c1C, the EC50 [11] was 3.89 µM (active), the IC50 [7] was 0.902 µM (active) and the EC50 [12] was 2.33 µM (active). For the same molecule, the IC50 [8] was 11.8 µM (active) and the IC50 [9] was > 100 µM (inactive).
For Cc1cc(OC(=O)c2cccs2)ccc1C(C)C, the IC50 (Phospholipase A2) was 3.74 µM (active) and the IC50 (Cysteine protease ATG4B) was 5.44 µM (active).
With O=C1CCCc2nc3c(cc21)C(O)Oc1c-3ccc2ccccc12 (stereo not given) the AC50 (HeLa) was 51 µM (active) and the EC50 (H4) was > 120 µM (not active).
In the case of Cc1ccccc1C(=O)N1CCN(c2ccc([N+](=O)[O-])c(N3CCOCC3)c2)CC1, the AC50 (Cytochrome P450 3A4 [6]) is reported as “inconclusive”.
For CC(=O)Nc1nc2ccc(Br)cc2s1, the AC50 [10] was 3.33 µM (active) and the IC50 (Protein skinhead-1) was > 100 µM (inactive).
In the case of COc1c(N2CCN(C(S)=Nc3ccccc3F)C(C)C2)c(F)cc2c(=O)c(C(=O)O)cn(C3CC3)c12 (stereo not given), the EC50 [13] is reported as 2.24 µM (active), the EC50 (Streptococcus) is reported as 3.27 µM (active) and the AC50 (Escherichia coli [14]) is reported as 0.518 µM (active).
In the case of COc1ccc2cc(C(=O)C3CCCN(C(=O)c4cc(=O)n(C)c(=O)n4C)C3)ccc2c1 (stereo not given), the AC50 (CAAX prenyl protease 2 [15]) is reported as 10.4 µM (active) and the AC50 (CAAX prenyl protease 2 [16]) is reported as 14.2 µM (active).
With CCn1nnc(NC(=O)c2cc3ccccc3o2)n1 the AC50 [17] was 48.3 µM (active).
For Cc1cccc(N(CC(=O)NC2CCCC2)C(=O)CCCC(=O)Nc2ccccn2)c1, the AC50 (Escherichia coli [14]) was 25 µM (active).
With O=c1c(-c2nc3ccccc3s2)cccn1Cc1ccccc1 the AC50 (HeLa) was 56.9 µM (active) and the EC50 [18] was 7.37 µM (active).
With CCn1c(C)cc(C(=O)COC(=O)c2cccnc2SC)c1C the IC50 (HEK293 [1]) was > 67.5 µM (inactive) and the IC50 [2] was > 67.5 µM (inactive).
For Fc1cccc(NC(S)=NCCCN2CCOCC2)c1, the AC50 (Cytochrome P450 3A4 [19]) was 17.8 µM (inconclusive), the AC50 (Escherichia coli [20]) was 17.3 µM (active) and the AC50 (Cytochrome P450 2C19; read-out: AC50) was 17.8 µM (inconclusive).
For CCC(=O)OC(Cc1ccccc1)(c1ccccc1)[C@H](C)CN(C)C (stereo not given in full), the EC50 [4] was 86.4 µM (inactive), the EC50 (Mu-type opioid receptor) was > 92.5 µM (inactive) and the EC50 [5] was > 92.5 µM (inactive).
For CCOC(=O)[C@H]1[C@H]2COc3ccc(OC)cc3[C@H]2N2C(=O)CN(Cc3ccccc3)C(=O)[C@@]12C, the AC50 (Escherichia coli [20]) was 54.9 µM (active).
For CC(C)(C)OC(=O)CC(S(=O)(=O)c1ccccc1)S(=O)(=O)c1ccccc1, the EC50 (HEK293 [21]) was > 59.6 µM (inactive) and the EC50 (HEK293 [22]) was > 59.6 µM (inactive).
With Cc1ccc(/N=C2N=C(O)/C(=C/C=C/c3ccco3)S\2)cc1C the IC50 (Phospholipase A2) was 5.94 µM (active), the IC50 (Cysteine protease ATG4B) was 6.65 µM (active) and the IC50 [23] was 13.4 µM (active).
With O=C(O)c1cc(O)c2c(c1)[C@@H]([C@H]1c3cc(C(=O)O)cc(O)c3C(=O)c3c(O[C@@H]4O[C@H](CO)[C@@H](O)[C@H](O)[C@H]4O)cccc31)c1cccc(O[C@@H]3O[C@H](CO)[C@@H](O)[C@H](O)[C@H]3O)c1C2=O [SENNOSIDE B] the AC50 [17] was 3.69 µM (active).
